# From patent publication US11072588B2, “Barbituric acid derivatives comprising cationic and lipophilic groups” (UNIVERSITETET I TROMSØ—NORGES ARKTISKE UNIVERSITET, priority 2017, dated 2021)
# Read-outs that look alike come from different tables or passages of the source.
# Columns and labels:
# S. aureus IHT 99040 = assay: MIC, multi-resistant clinical isolate; format: cell-based, Staphylococcus aureus; details: for selectivity index (EC50/MIC): RBC EC50 / MIC; for MIC: Staphylococcus aureus, IHT99040, read-out: Antimicrobial activity (MIC)
# Description: (§1) Working solutions of the test derivatives were prepared with up to 100% DMSO and stored at −20° C. If necessary, the solutions were heated to 40-80° C. before testing to facilitate complete dissolution. Double-distilled water was used in all dilutions prepared. […] A microdilution susceptibility test was used for MIC determination according to Clinical and Laboratory Standards Institute, “Methods for Dilution Antimicrobial Sisceptibility Tests for Bacteria That Graw Aerobically”, Approved Standard M07-A9, edition 2012, with modifications as described by Igumnova et al (Bioorg Med Chem, 2016, 24 (22), 5884-5894).
# (§2) Briefly, the bacterial inoculum was adjusted to approximately 2.5-3×10^4 cells/mL in Mueller-Hinton broth (MHB, Difco Laboratories, USA), and incubated in a ratio of 1:1 with test derivatives in polystyrene 96-well flat-bottom microplates (NUNC, Roskilde, Denmark). Positive growth control (without test derivatives) and negative control (without bacteria) were included. The reference antibiotic was oxytetracycline hydrochloride (Sigma Aldrich, Saint Louis, Mo., USA). The microplates were incubated in an EnVision microplate reader (Perkin-Elmer, Turku, Finland) placed in an incubator set to 35° C. for 48 h. The MIC value was defined as the lowest concentration of derivative resulting in no bacterial growth as determined by OD600 measurement. All derivatives were tested in three parallels.
# (§3) The MIC was determined as explained above with some exceptions; working solutions of test derivatives were prepared from concentrated DMSO stocks stored at room temperature, the density of the bacterial inoculum was increased 40× to 1-1.2×10^6 cells/mL, enterococci were incubated in Brain Heart Infusion broth (BHIB, Difco Laboratories, USA), the microplates were incubated for 24 h, and the derivatives were tested in four parallels.
# S. aureus N315 = assay: MIC, multi-resistant clinical isolate; format: cell-based, Staphylococcus aureus; details: for selectivity index (EC50/MIC): RBC EC50 / MIC, S. aureus N315; for MIC: Staphylococcus aureus, N315, read-out: Antimicrobial activity (MIC)
# Description: as §1, §2, §3
# S. aureus NCTC 10442 = assay: MIC, multi-resistant clinical isolate; format: cell-based, Staphylococcus aureus; details: for selectivity index (EC50/MIC): RBC EC50 / MIC, S. aureus NCTC 10442; for MIC: Staphylococcus aureus, NCTC10442, read-out: Antimicrobial activity (MIC)
# Description: as §1, §2, §3
# S. aureus strain 85/2082 = assay: MIC, multi-resistant clinical isolate; format: cell-based, Staphylococcus aureus; details: for selectivity index (EC50/MIC): RBC EC50 / MIC, S. aureus strain 85/2082; for MIC: Staphylococcus aureus, 85/2082, read-out: Antimicrobial activity (MIC)
# Description: as §1, §2, §3
# S. aureus strain WIS = assay: MIC, multi-resistant clinical isolate; format: cell-based, Staphylococcus aureus; details: for selectivity index (EC50/MIC): RBC EC50 / MIC, S. aureus strain WIS; for MIC: Staphylococcus aureus, read-out: Antimicrobial activity (MIC)
# Description: as §1, §2, §3
# E. faecium 50673722 = assay: MIC, multi-resistant clinical isolate; format: cell-based, Enterococcus faecium; details: for MIC: Enterococcus faecium, read-out: Antimicrobial activity (MIC); for selectivity index (EC50/MIC): RBC EC50 / MIC
# Description: as §1, §2, §3
# E. faecium 50758899 = assay: MIC, multi-resistant clinical isolate; format: cell-based, Enterococcus faecium; details: for MIC: Enterococcus faecium, read-out: Antimicrobial activity (MIC); for selectivity index (EC50/MIC): RBC EC50 / MIC
# Description: as §1, §2, §3
# E. faecium 50901530 = assay: MIC, multi-resistant clinical isolate; format: cell-based, Enterococcus faecium; details: for MIC: Enterococcus faecium, read-out: Antimicrobial activity (MIC); for selectivity index (EC50/MIC): RBC EC50 / MIC
# Description: as §1, §2, §3
# E. faecium K36-18 = assay: MIC, multi-resistant clinical isolate; format: cell-based, Enterococcus faecium; details: for MIC: Enterococcus faecium, K3618, read-out: Antimicrobial activity (MIC); for selectivity index (EC50/MIC): RBC EC50 / MIC, E. faecium K36-18
# Description: as §1, §2, §3
# E. faecium TUH50-22 = assay: MIC, multi-resistant clinical isolate; format: cell-based, Enterococcus faecium; details: for MIC: Enterococcus faecium, TUH5022, read-out: Antimicrobial activity (MIC); for selectivity index (EC50/MIC): RBC EC50 / MIC
# Description: as §1, §2, §3
# E. coli 50579417 = assay: MIC, multi-resistant clinical isolate; format: cell-based, Escherichia coli; details: for MIC: Escherichia coli, read-out: Antimicrobial activity (MIC); for selectivity index (EC50/MIC): RBC EC50 / MIC
# Description: as §1, §2, §3
# E. coli 50639799 = assay: MIC, multi-resistant clinical isolate; format: cell-based, Escherichia coli; details: for MIC: Escherichia coli, read-out: Antimicrobial activity (MIC); for selectivity index (EC50/MIC): RBC EC50 / MIC
# Description: as §1, §2, §3
# E. coli 50676002 = assay: MIC, multi-resistant clinical isolate; format: cell-based, Escherichia coli; details: for selectivity index (EC50/MIC): RBC EC50 / MIC
# Description: as §1, §2, §3
# E. coli 50739822 = assay: MIC, multi-resistant clinical isolate; format: cell-based, Escherichia coli; details: for MIC: Escherichia coli, read-out: Antimicrobial activity (MIC); for selectivity index (EC50/MIC): RBC EC50 / MIC
# Description: as §1, §2, §3
# E. coli 50857972 = assay: MIC, multi-resistant clinical isolate; format: cell-based, Escherichia coli; details: for MIC: Escherichia coli, read-out: Antimicrobial activity (MIC); for selectivity index (EC50/MIC): RBC EC50 / MIC
# Description: as §1, §2, §3
# P. aeruginosa 50692520 = assay: MIC, multi-resistant clinical isolate; format: cell-based, Pseudomonas aeruginosa; details: for MIC: Pseudomonas aeruginosa, read-out: Antimicrobial activity (MIC)
# Description: as §1, §2, §3
# P. aeruginosa K34-7 = assay: MIC, multi-resistant clinical isolate; format: cell-based, Pseudomonas aeruginosa; details: for MIC: Pseudomonas aeruginosa, K347, read-out: Antimicrobial activity (MIC)
# Description: as §1, §2, §3
# P. aeruginosa K44-24 = assay: MIC, multi-resistant clinical isolate; format: cell-based, Pseudomonas aeruginosa; details: for MIC: Pseudomonas aeruginosa, K4424, read-out: Antimicrobial activity (MIC)
# Description: as §1, §2, §3
# [1] = system: human metastatic melanoma (A2058, ATCC CRL-11147) cells; assay: Anti-cancer activity against A2058 cells; format: cell-based; details: A2058, read-out: Anti-cancer IC50
# Description: Cytotoxicity of the test compounds was evaluated after 72 hour exposure to human metastatic melanoma (A2058, ATCC CRL-11147) cells.
# A2058 cells were grown overnight (2,000 cells/well), and then incubated with the test compounds (range of concentrations) diluted in MEM Earle's supplemented with gentamycin (10 μg/mL), non-essential amino acids (1%), sodium pyruvate (1 mM), L-alanyl-Lglutamine (2 mM), but without FBS (total volume was 100 μl) for […]. Ten μL of CellTiter 96® AQueous One Solution Reagent (Promega, Madison, Wis., USA) was added, and the plates were then further incubated for 1 hour.
# Absorbance was measured at 485 nm in a DTX 880 Multimode Detector. Results were calculated as % survival compared to negative (assay media) and positive (Triton X-100; Sigma-Aldrich) controls.
Compound,selectivity index (EC50/MIC) (S. aureus IHT 99040),MIC (S. aureus IHT 99040) [µg/mL],selectivity index (EC50/MIC) (S. aureus N315),MIC (S. aureus N315) [µg/mL],selectivity index (EC50/MIC) (S. aureus NCTC 10442),MIC (S. aureus NCTC 10442) [µg/mL],selectivity index (EC50/MIC) (S. aureus strain 85/2082),MIC (S. aureus strain 85/2082) [µg/mL],selectivity index (EC50/MIC) (S. aureus strain WIS),MIC (S. aureus strain WIS) [µg/mL],MIC (E. faecium 50673722) [µg/mL],selectivity index (EC50/MIC) (E. faecium 50673722),MIC (E. faecium 50758899) [µg/mL],selectivity index (EC50/MIC) (E. faecium 50758899),MIC (E. faecium 50901530) [µg/mL],selectivity index (EC50/MIC) (E. faecium 50901530),MIC (E. faecium K36-18) [µg/mL],selectivity index (EC50/MIC) (E. faecium K36-18),MIC (E. faecium TUH50-22) [µg/mL],selectivity index (EC50/MIC) (E. faecium TUH50-22),also measured
"CC(C)(C)c1cc(CC2(Cc3cc(C(C)(C)C)cc(C(C)(C)C)c3)C(=O)N(CCCCNC(=N)N)C(=O)N(CCCCNC(=N)N)C2=O)cc(C(C)(C)C)c1 [8(iii), 1,1′-(4,4′-(5,5-bis(3,5-di-tert-butylbenzyl)-2,4,6-trioxodihydropyrimidine-1,3(2H,4H)-diyl)bis(butane-4,1-diyl))-diguanidine]",(<2),2,(<1),4,(<2),2,(<2),2,(<2),2,2,(<2),2,(<2),2,(<2),2,(<2),2,(<2),"MIC (E. coli 50579417): 16 µg/mL; selectivity index (EC50/MIC) (E. coli 50579417): (<0.25); MIC (E. coli 50639799): 8 µg/mL; selectivity index (EC50/MIC) (E. coli 50639799): (<0.5); MIC (E. coli 50676002; Escherichia coli, E. coli 50676002, read-out: Antimicrobial activity (MIC)): 16 µg/mL; selectivity index (EC50/MIC) (E. coli 50676002; E. coli 50676002): (<0.25); MIC (E. coli 50739822): 8 µg/mL; selectivity index (EC50/MIC) (E. coli 50739822): (<0.5); MIC (E. coli 50857972): 8 µg/mL; selectivity index (EC50/MIC) (E. coli 50857972): (<0.5); MIC (P. aeruginosa 50692520): 16 µg/mL; selectivity index (EC50/MIC) (P. aeruginosa 50692520; RBC EC50 / MIC): (<0.25); MIC (P. aeruginosa K34-7): 16 µg/mL; selectivity index (EC50/MIC) (P. aeruginosa K34-7; RBC EC50 / MIC, P. aeruginosa K34-7): (<0.25); MIC (P. aeruginosa K44-24): 16 µg/mL; selectivity index (EC50/MIC) (P. aeruginosa K44-24; RBC EC50 / MIC): (<0.25); IC50 [1]: 33 µg/mL"
"CC(C)(C)c1ccc(CC2(Cc3ccc(C(C)(C)C)cc3)C(=O)N(CCCCN)C(=O)N(CCCCN)C2=O)cc1 [Compound 7(i), 1,3-bis(4-aminobutyl)-5,5-bis(4-tertbutylbenzyl) pyrimidin-2,4,6(1H,3H,5H)-trione]",(18),8,(18),8,(18),8,(18),8,(18),8,8,(18),8,(18),4,(36),8,(18),8,(18),"MIC (E. coli 50579417): 8 µg/mL; selectivity index (EC50/MIC) (E. coli 50579417): (18); MIC (E. coli 50639799): 8 µg/mL; selectivity index (EC50/MIC) (E. coli 50639799): (18); MIC (E. coli 50676002; Escherichia coli, 50676002, read-out: Antimicrobial activity (MIC)): 4 µg/mL; selectivity index (EC50/MIC) (E. coli 50676002; E. coli 50676002): (36); MIC (E. coli 50739822): 8 µg/mL; selectivity index (EC50/MIC) (E. coli 50739822): (18); MIC (E. coli 50857972): 4 µg/mL; selectivity index (EC50/MIC) (E. coli 50857972): (36); MIC (P. aeruginosa 50692520): > 32 µg/mL; MIC (P. aeruginosa K34-7): > 32 µg/mL; MIC (P. aeruginosa K44-24): > 32 µg/mL; IC50 [1]: 1 µg/mL"
